One data set has as its target Histone deacetylase 2 (Homo sapiens, UniProt Q92769). As to the kind of experiment: Inhibition of HDAC2 (unknown origin).
The target of another data set is Histone deacetylase 3 (Homo sapiens, UniProt O15379). As to the kind of experiment: Inhibition of HDAC3 (unknown origin).
A further data set deals with Histone deacetylase 4 (Homo sapiens, UniProt P56524). Nature of the data set: Inhibition of HDAC4 (unknown origin).
The target of the next data set is Histone deacetylase 5 (Homo sapiens, UniProt Q9UQL6). As to the kind of experiment: Inhibition of HDAC5 (unknown origin).
Chain of Histone deacetylase 5 (Q9UQL6 whole entry): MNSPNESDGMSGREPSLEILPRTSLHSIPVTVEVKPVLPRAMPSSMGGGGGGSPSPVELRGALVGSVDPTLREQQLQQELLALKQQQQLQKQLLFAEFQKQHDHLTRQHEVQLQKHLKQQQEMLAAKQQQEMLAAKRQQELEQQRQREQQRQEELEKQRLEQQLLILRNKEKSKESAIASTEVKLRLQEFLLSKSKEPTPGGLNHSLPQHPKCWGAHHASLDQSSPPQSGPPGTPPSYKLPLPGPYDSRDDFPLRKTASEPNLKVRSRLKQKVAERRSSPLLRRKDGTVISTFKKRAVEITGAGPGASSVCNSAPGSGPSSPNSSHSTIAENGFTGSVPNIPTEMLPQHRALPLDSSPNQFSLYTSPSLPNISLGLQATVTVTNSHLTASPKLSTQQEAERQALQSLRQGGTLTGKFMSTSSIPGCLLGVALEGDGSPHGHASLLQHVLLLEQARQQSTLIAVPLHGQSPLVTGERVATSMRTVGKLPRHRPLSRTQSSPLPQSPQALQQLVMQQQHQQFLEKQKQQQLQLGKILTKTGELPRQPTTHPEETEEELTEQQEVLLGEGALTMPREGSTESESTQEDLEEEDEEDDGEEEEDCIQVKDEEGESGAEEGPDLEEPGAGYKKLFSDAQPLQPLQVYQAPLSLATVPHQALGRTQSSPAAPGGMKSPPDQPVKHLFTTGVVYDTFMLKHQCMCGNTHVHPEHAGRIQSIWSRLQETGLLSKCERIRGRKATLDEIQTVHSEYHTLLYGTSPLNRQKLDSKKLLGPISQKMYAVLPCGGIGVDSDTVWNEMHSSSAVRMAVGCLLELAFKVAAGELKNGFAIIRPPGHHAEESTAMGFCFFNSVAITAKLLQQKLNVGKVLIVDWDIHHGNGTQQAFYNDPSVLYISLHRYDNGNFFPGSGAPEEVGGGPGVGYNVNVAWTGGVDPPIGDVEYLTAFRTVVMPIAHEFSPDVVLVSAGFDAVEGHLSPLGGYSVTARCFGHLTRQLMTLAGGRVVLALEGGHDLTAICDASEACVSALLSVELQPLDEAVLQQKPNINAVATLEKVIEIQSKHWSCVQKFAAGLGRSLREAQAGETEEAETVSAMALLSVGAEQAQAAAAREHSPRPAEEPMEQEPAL
The next data set deals with T1, Histone deacetylase 8 (Homo sapiens, UniProt Q9BY41).
T1 sequence (Q9BY41 whole entry): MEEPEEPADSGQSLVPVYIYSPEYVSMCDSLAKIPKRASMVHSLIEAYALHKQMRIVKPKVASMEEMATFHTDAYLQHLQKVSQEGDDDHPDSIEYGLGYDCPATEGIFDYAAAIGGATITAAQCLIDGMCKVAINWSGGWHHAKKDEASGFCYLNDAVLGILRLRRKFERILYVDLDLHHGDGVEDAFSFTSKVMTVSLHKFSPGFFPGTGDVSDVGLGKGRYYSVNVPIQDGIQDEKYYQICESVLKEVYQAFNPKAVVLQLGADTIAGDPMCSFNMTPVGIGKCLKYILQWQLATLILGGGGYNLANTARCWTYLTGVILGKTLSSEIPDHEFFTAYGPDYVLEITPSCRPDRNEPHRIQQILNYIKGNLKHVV
Nature of the data set: Inhibition of HDAC8 (unknown origin).

Another data set deals with Histone deacetylase 9 (Homo sapiens, UniProt Q9UKV0). Nature of the data set: Inhibition of HDAC9 (unknown origin).
Chain of Histone deacetylase 9 (Q9UKV0 whole entry): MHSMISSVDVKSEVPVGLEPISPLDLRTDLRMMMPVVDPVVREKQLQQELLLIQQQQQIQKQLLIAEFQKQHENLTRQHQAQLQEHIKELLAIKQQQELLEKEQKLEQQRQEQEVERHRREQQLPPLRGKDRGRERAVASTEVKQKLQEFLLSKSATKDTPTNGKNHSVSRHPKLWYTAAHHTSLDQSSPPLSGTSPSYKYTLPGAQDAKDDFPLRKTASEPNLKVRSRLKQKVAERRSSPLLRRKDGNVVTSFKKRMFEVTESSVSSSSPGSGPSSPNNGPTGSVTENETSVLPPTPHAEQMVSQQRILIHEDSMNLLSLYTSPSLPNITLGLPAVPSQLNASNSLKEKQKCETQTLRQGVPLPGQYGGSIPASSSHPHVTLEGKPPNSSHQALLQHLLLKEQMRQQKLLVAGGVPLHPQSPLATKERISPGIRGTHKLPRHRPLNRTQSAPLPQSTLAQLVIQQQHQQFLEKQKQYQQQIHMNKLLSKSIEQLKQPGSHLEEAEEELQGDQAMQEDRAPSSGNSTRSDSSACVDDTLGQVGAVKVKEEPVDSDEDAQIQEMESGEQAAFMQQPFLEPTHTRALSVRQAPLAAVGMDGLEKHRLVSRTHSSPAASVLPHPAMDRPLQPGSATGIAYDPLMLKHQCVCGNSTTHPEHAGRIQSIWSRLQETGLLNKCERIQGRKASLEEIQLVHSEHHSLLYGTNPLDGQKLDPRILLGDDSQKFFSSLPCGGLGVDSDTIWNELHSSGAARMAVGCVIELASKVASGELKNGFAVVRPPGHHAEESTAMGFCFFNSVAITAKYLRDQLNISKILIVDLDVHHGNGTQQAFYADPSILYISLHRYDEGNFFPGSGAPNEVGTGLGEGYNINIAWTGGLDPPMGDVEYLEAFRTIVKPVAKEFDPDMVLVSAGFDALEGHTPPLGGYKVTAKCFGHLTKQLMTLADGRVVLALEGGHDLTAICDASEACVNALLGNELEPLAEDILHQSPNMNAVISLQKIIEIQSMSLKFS
Data set [1] has as its target T2, Polyamine deacetylase HDAC10 (Homo sapiens, UniProt Q969S8).
T2 sequence (Q969S8 whole entry): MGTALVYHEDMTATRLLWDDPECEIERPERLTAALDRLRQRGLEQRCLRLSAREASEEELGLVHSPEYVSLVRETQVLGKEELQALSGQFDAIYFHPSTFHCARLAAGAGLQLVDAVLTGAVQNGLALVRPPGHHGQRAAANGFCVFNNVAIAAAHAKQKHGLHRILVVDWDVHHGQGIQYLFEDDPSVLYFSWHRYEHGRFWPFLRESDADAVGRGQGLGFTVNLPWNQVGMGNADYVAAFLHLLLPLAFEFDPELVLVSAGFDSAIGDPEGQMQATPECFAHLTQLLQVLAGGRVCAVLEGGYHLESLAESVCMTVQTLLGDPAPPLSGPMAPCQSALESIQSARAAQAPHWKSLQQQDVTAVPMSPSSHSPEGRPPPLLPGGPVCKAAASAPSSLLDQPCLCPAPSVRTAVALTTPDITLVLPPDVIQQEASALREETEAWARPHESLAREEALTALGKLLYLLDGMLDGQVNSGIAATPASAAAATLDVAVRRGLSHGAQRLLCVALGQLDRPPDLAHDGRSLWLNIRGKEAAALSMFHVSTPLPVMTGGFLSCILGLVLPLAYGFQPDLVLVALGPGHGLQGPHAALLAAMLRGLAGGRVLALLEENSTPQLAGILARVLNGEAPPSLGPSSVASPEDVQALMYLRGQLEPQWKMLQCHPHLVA
As to the kind of experiment: Inhibition of HDAC10 (unknown origin).

The next data set deals with T3, Histone deacetylase 11 (Homo sapiens, UniProt Q96DB2).
T3 sequence (Q96DB2 whole entry): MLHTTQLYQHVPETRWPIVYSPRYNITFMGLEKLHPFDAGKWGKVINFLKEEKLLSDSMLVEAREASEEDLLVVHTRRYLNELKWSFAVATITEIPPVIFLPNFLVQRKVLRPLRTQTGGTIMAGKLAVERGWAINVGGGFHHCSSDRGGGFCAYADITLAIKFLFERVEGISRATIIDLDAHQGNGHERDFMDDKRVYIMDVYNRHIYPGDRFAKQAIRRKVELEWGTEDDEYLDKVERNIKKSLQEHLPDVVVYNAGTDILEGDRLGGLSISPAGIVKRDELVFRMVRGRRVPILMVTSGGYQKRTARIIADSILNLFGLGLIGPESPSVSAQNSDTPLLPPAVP
Nature of the data set: Inhibition of HDAC11 (unknown origin).

Data set [2] in a line: Drug concentration in C57BL/6 mouse brain at 1 mg/kg, ip measured after 0.5 hrs by LC-MS/MS analysis. Conditions: read-out: Ct; call rule not given here. It counts as ADME, organism-based.
Data set [3] is described as follows: Drug concentration in C57BL/6 mouse brain at 1 mg/kg, ip measured after 1 hr by LC-MS/MS analysis. In kind it is ADME, organism-based. As to conditions: read-out: Ct.
A short description of data set [4]: Drug concentration in C57BL/6 mouse brain at 1 mg/kg, ip measured after 3 hrs by LC-MS/MS analysis. It counts as ADME, organism-based. As to conditions: read-out: Ct.
Data set [5] is described as follows: Drug concentration in C57BL/6 mouse plasma at 1 mg/kg, ip measured after 0.5 hrs by LC-MS/MS analysis. It counts as ADME, organism-based.
Data set [6] in a line: Drug concentration in C57BL/6 mouse plasma at 1 mg/kg, ip measured after 1 hr by LC-MS/MS analysis. In kind it is ADME, organism-based.
Data set [7] is described as follows: Drug concentration in C57BL/6 mouse plasma at 1 mg/kg, ip measured after 3 hrs by LC-MS/MS analysis. In kind it is ADME, organism-based.
The nature of data set [8]: Ratio of drug concentration in brain to plasma of C57BL/6 mouse plasma at 1 mg/kg, ip measured after 0.5 hr by LC-MS/MS analysis. It counts as ADME, organism-based. Conditions: read-out: BPR.
Data set [9] is described as follows: Ratio of drug concentration in brain to plasma of C57BL/6 mouse plasma at 1 mg/kg, ip measured after 1 hr by LC-MS/MS analysis. It counts as ADME, organism-based. As to conditions: read-out: BPR.
The nature of data set [10]: Ratio of drug concentration in brain to plasma of C57BL/6 mouse plasma at 1 mg/kg, ip measured after 3 hrs by LC-MS/MS analysis. It counts as ADME, organism-based. Conditions: read-out: BPR.
The subject of the next data set is BV-2. Nature of the data set: Cytotoxicity against mouse BV-2 cells at 500 to 1000 nM incubated overnight in presence of LPS by LDH assay. In kind it is toxicity, cell-based. As to conditions: bv-2, 1 µM, dose 500-1000 nM.
For another data set, the target named is Histone deacetylase 1 (Homo sapiens, UniProt Q13547). Nature of the data set: Inhibition of HDAC1 (unknown origin).
Chain of Histone deacetylase 1 (Q13547 whole entry): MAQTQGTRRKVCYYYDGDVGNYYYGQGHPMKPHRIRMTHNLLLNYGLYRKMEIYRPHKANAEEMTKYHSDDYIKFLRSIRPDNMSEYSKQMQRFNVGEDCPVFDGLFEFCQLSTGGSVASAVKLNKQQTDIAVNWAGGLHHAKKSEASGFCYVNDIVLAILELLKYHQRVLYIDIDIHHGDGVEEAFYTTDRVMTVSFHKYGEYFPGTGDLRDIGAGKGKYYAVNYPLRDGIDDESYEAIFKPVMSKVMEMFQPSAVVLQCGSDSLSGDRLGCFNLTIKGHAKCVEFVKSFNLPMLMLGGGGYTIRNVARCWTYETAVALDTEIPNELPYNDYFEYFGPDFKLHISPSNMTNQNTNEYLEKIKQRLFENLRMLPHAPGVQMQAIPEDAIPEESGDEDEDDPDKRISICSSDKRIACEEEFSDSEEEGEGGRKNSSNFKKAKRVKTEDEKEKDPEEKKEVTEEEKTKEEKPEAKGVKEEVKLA
Data set [11] deals with T4, Protein deacetylase HDAC6 (Homo sapiens, UniProt Q9UBN7).
T4 sequence (Q9UBN7 whole entry): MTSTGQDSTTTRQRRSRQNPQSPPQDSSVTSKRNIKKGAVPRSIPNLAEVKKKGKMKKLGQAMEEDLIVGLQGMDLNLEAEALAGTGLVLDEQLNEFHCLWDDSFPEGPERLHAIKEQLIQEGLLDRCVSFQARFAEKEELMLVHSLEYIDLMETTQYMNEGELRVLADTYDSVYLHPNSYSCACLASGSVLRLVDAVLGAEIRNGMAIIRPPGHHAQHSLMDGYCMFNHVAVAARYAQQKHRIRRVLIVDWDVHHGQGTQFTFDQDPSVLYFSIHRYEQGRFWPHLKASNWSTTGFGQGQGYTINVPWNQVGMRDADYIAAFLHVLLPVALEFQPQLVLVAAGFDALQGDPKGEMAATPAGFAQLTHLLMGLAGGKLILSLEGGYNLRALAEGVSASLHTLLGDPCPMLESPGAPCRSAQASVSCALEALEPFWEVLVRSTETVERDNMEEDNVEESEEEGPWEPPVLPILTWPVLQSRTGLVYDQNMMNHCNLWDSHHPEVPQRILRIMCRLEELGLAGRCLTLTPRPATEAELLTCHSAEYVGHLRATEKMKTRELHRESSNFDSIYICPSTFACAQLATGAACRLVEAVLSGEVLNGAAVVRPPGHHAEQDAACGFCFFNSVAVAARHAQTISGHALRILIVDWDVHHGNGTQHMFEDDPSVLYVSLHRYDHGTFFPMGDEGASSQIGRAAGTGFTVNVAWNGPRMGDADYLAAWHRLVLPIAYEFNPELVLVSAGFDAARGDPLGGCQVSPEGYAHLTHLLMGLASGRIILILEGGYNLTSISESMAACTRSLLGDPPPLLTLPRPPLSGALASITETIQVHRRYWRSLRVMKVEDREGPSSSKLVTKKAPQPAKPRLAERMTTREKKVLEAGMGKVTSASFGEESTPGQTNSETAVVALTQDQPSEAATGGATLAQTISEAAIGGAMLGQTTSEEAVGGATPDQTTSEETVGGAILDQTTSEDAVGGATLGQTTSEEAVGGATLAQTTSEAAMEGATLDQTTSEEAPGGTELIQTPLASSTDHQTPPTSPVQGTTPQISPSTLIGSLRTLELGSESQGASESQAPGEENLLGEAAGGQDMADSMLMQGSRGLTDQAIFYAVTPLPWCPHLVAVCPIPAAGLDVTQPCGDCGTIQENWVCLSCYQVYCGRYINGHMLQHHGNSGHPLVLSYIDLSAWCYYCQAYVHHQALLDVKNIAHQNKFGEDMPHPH
As to the kind of experiment: Inhibition of HDAC6 (unknown origin).

Data set [12] is described as follows: Drug uptake in mouse brain at 3 mg/kg measured at upto 60 mins by PET imaging based analysis. In kind it is ADME, organism-based. As to conditions: in vivo, 1 h.
Data set [13] in a line: Drug accumulation in mouse heart measured after 5 mins post injection. As to conditions: in vivo. It counts as ADME, tissue-based.
Data set [14] in a line: Drug accumulation in mouse liver measured after 5 mins post injection. In kind it is ADME, tissue-based. As to conditions: in vivo.
Data set [15] in a line: Drug accumulation in mouse kidney measured after 5 mins post injection. In kind it is ADME, tissue-based. As to conditions: in vivo.
The nature of data set [16]: Drug accumulation in mouse lung measured after 5 mins post injection. It counts as ADME, tissue-based. Conditions: in vivo.
A short description of data set [17]: Drug accumulation in mouse spleen measured after 5 mins post injection. It counts as ADME, tissue-based. Conditions: in vivo.
Data set [18] is described as follows: Drug accumulation in mouse liver measured after 60 mins post injection. It counts as ADME, tissue-based. As to conditions: in vivo, 1 h.
Data set [19] can be described thus: Drug accumulation in mouse kidney measured after 60 mins post injection. In kind it is ADME, tissue-based. Conditions: in vivo, 1 h.

Chain of Histone deacetylase 3 (O15379 whole entry): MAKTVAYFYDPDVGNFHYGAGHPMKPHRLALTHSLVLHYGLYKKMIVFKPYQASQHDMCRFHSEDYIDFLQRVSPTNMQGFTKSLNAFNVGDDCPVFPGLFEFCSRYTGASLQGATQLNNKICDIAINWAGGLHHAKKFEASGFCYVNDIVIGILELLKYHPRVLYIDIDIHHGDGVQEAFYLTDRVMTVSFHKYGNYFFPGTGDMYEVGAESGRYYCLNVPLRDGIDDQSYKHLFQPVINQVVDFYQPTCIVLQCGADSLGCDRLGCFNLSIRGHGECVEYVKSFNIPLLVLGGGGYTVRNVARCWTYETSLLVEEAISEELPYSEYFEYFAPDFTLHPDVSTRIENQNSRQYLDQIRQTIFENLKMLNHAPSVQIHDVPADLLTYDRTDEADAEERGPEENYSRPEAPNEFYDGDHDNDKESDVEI
Chain of Histone deacetylase 4 (P56524 whole entry): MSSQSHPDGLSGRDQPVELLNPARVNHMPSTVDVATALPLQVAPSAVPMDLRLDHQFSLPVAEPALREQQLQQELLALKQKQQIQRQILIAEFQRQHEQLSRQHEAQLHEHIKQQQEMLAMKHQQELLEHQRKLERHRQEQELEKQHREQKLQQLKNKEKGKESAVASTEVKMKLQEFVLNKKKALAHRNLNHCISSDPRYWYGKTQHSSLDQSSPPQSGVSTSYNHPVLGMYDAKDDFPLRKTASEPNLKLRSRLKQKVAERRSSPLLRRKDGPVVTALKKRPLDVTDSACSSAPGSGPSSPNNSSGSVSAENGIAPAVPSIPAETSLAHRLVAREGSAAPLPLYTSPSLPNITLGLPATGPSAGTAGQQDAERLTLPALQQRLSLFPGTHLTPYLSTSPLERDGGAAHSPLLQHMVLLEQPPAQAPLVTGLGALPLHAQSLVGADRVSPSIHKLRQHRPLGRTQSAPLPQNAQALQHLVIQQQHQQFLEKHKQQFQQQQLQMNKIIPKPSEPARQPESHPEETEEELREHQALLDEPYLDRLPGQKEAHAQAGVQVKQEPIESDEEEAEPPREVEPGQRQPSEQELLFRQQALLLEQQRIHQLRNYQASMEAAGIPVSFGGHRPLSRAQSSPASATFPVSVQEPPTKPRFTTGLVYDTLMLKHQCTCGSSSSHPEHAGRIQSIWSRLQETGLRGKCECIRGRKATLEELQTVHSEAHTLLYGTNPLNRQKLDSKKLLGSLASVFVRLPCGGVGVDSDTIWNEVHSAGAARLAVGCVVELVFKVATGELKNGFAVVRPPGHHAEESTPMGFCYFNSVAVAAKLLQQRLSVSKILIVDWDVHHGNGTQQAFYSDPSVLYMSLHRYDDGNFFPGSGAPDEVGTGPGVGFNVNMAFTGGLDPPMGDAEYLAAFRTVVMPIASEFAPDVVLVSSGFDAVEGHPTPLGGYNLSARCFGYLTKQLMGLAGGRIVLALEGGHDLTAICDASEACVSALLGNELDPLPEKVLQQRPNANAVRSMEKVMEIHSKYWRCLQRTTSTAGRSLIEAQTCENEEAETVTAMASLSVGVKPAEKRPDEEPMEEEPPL
Chain of Histone deacetylase 2 (Q92769 whole entry): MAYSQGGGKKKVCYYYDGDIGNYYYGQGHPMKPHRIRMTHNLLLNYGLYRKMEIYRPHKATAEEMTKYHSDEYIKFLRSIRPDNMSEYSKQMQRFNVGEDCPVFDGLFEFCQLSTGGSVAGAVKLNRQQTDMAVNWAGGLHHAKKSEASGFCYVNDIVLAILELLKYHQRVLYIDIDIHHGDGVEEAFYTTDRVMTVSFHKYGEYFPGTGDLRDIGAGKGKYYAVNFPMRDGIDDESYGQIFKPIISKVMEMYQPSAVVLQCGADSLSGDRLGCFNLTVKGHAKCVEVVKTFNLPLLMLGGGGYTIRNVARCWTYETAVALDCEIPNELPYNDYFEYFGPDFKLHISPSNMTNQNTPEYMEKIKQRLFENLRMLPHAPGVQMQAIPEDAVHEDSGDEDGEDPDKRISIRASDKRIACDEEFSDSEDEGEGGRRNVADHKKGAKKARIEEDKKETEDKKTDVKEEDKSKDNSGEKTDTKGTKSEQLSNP

For orientation: IC50 means the point on the concentration scale where inhibition reaches its midpoint. Lower therefore signals greater potency. In the case of `O=C(NO)c1ccc(CN2CCCc3cccnc32)c(F)c1`, the IC50 on Histone deacetylase 2 is more than 10000 nM; on Histone deacetylase 3, 568 nM; against Histone deacetylase 4, 578 nM; against Histone deacetylase 5 it was 1850 nM; against Histone deacetylase 8, 597 nM; at Histone deacetylase 9 it was 701 nM. The IC50 in data set [1] amounted to 269 nM; against Histone deacetylase 11, 8610 nM. The concentration at 0.5 h in data set [2] was 13.2 ng/mL; in data set [5], 6.21 ng/mL. The concentration at 1 h in [3] is 6.48 ng/mL; in data set [6], 4.32 ng/mL. Further, the concentration at 3 h in data set [4] was determined as 1.07 ng/mL; in data set [7], 0.82 ng/mL. Besides, the Kp at 0.5 h in data set [8] worked out at 2.1. Further, in [9], the Kp at 1 h came to 1.5. Besides, the Kp at 3 h in data set [10] was 1.3. Also, in the data set on BV-2, the Activity entry is on record as “Non-Toxic”.

For the molecule `O=C(NO)c1ccc(CNC2CCCc3cccnc32)c(F)c1` (stereo unspecified), the results for the IC50 (on Histone deacetylase 1; in [11]) were 5050 nM and 63 nM, respectively.

With `O=C(NO)c1ccc(CN2CCCc3cccnc32)c([18F])c1`, the SUV in [12] stood at 0.6. The Drug uptake is recorded as more than 10 %ID/cc in data set [13]; more than 10 %ID/cc in data set [14]; more than 10 %ID/cc in [15]; “Active” in [16]; “Active” in data set [17]; “Active” in [18]. The Drug uptake entry in [19] is “Active”.

For the molecule `O=C(NO)c1ccc(CNc2cccc3ccc([18F])nc23)cc1`, the SUV in data set [12] was 0.35.

As to `O=C(NO)c1ccc(CNC2CCCc3cccnc32)cc1` (stereo unspecified), the IC50 against Histone deacetylase 1 was 4710 nM; in [11], 86.1 nM.

The values above are taken from ChEMBL document CHEMBL5325440, “Design, synthesis, and anti-inflammatory activity characterization of novel brain-permeable HDAC6 inhibitors” (Eur J Med Chem, 2023).
